Laboratory results reported in PubChem BioAssay AID1671318.

Target: Tyrosine-protein kinase Lyn (Homo sapiens) (UniProt P07948)
Test: inhibitors of human LYN isoform A activity – biochemical, Z'-LYTE, FRET readout, dose response (AID 1671318)
Details: Z'-LYTE FRET kinase assay, recombinant LYN A

Sequence of Tyrosine-protein kinase Lyn (Homo sapiens) (P07948 whole entry, looked up, canonical isoform): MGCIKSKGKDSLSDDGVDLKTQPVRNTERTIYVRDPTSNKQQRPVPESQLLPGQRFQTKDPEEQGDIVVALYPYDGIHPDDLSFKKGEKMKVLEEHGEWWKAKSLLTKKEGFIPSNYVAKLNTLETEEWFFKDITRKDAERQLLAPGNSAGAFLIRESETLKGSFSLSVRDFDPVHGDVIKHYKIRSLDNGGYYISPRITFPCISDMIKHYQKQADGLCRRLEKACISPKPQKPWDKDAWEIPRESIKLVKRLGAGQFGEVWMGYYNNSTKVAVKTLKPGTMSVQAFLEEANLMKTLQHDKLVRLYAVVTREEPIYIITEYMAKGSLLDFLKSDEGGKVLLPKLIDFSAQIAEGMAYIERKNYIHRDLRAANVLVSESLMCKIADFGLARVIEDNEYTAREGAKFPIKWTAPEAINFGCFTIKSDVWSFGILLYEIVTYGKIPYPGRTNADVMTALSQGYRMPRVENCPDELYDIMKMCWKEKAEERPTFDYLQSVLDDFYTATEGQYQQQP

Compound: COc1cc2ncnc(Nc3cccc(Cl)c3)c2cc1OC
- IC50: 0.208 µM
